The source of these data is patent US20040087559A1, “Methods for prevention and treatment of cancer” (priority 1999, published 2004).

The test system of data set [1] is HEP 62 hepatoma cell line. Particulars: cited from earlier work.
The subject of data set [2] is human T-lymphotrophic virus-transformed lymphocytes. The following applies: cited from earlier work.
Data set [3] relates to human prostate cancer cells. The following applies: cited from earlier work.
Data set [4] deals with renal proximal tubular cells. The following applies: primary cultures of renal proximal tubular cells; cited from earlier work.
A further data set has as its system human bone cells. Particulars: human bone cells (extra-renal site); cited from earlier work.
The test system of data set [5] is normal human keratinocytes transfected with 1α-OHase cDNA. As to the kind of experiment: [3H]thymidine incorporation of human keratinocytes transfected with 1α-OHase cDNA. It is filed as cell-based. On the procedure:
FIG. 6 depicts a graph showing the effect of 25(OH)D3 concentration on the proliferative activity of normal human keratinocytes transfected with 1α-OHase cDNA. Cultured human keratinocytes transfected with a vector containing the 1α-OHase cDNA as described were incubated with 25(OH)D3 at different concentrations (1 nM, 10 nM, 100 nM) for 18 hours. [^3H]thymidine incorporation was measured as described. ●-: [^3H]thymidine incorporation of cells not transfected (“Control”); ∘-∘: [^3H]thymidine incorporation of cells transfected with vector containing 1α-OHase cDNA (“1α-OHase transfection”).
(F) Keratinocyte transfection. Keratinocytes were maintained in MCDB-153 medium. Cells in 24-well dishes at 50%-60% confluence were transfected with […] of 1α-OHase cDNA which had been subcloned into pCR3.1 vector (INVITROGEN). Empty vector was used as a control. For each transfection, 1.0 μg was diluted in 100 μl of medium containing 6-8 μl Plus Reagent. This mixture was incubated for 15 minutes at room temperature. […] [^3H]thymidine was added to the cultures and [^3H]thymidine incorporation into the DNA (interpreted as a measure of the DNA synthetic activity, i.e. proliferation of the cells) was measured as previously described (Chen, T. C., et al., J Nutr. Biochem. 4:49-57 (1993)). […]

Data set [6] addresses T1, 1α-OHase (Homo sapiens, UniProt O15528).
T1 sequence (O15528 1-508): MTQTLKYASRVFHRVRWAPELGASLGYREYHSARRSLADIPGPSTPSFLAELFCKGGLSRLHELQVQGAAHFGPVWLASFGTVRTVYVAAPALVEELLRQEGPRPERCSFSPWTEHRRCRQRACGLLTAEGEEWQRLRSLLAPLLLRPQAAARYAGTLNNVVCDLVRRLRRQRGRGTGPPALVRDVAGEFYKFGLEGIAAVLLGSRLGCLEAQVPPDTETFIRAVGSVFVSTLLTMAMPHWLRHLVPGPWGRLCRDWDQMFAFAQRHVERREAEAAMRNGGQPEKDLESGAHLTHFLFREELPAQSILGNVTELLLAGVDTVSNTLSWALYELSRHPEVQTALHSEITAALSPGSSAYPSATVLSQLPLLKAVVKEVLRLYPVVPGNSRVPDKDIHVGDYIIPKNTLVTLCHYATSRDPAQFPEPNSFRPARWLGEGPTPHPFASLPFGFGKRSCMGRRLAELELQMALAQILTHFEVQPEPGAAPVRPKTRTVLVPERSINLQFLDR
Particulars: NP96-5; clotrimazole 20 μM; 25(OH)D3 50 nM, 2 h 37° C.
From the text: (§1) Primary cultures of human prostatic epithelial cells were established and characterized as described by Lokeshwar et al., Cancer Res. 53:4493-4498 (1993). Prostatic epithelial cells cultured in a serum-free defined medium (Mammary Epithelial Growth Medium (MEGM), Clontech, San Diego, Calif.) express luminal epithelium specific cytokeratins (cytokeratins 8 and 18) as detected immunohistochemically using an anti-cytokeratin antibody, CAM 5.2 (Becton-Dickinson, Mountain View, Calif.). The serum-free medium contains MCDF170 supplemented with Epidermal Growth Factor, 25 ng/ml, hydrocortisone, 0.5 μg/ml, ethanolamine, 1×10^−4, insulin, 5 μg/ml, transferrin, 5 μg/ml, and whole bovine pituitary extract, 70 μg/ml.
(§2) Prostatic cells used were at their first passage in vitro and were cultured in the serum-free RPMI medium during incubation with vitamin D metabolites. […] Histological examination of adjacent tissue sections taken from specimens used for cultures confirmed their identity as normal or BPH cultures.

The target in data set [7] is T1, 1α-OHase. The following applies: PC-3.
Method: (§3) (A) Cell Lines. DU 145, PC-3, and LNCaP cell lines were obtained from the American Type Culture Collection, Rockville, Md. All cell lines were tested and found to be free of Mycoplasma contamination.
(§4) (B) Culture Conditions. Prostate cancer cell lines were cultured following several passages in vitro. Cells were routinely cultured in complete medium (RPMI 1640 medium supplemented with fetal bovine serum (10%., HyClone Labs, Logan Utah) and gentamicin (10 μg/ml, Life Technologies, Inc., Gaithersburg, Md.)). Cells were seeded in 35 mm culture dishes (Corning-Costar, Cambridge, Mass.) at 1×10^5 cells/dish in complete medium. Medium was changed to a serum-free medium (RPMI 1640 containing insulin (10 μg/ml), transferrin ( 10 μg/ml) and selenous acid (1 ng/ml)) 24 hours before adding 25(OH)D3.
Data set [8] concerns the target T1, 1α-OHase. Particulars: DU 145.
Method: as §3, §4
In data set [9] the target is T1, 1α-OHase. Particulars: BPH96-11; clotrimazole 20 μM; 25(OH)D3 50 nM, 2 h 37° C.
From the text: as §1, §2
In data set [10] the target is T1, 1α-OHase. Particulars: BPH cultures; clotrimazole 20 μM; 25(OH)D3 50 nM, [3H]-25(OH)D3, DPPD 10 μM, 2 h 37° C. (FIG. 5).
Method: (§5) In addition, 1α-OHase activity was determined by using a radioactive metabolite, [^3H]-25(OH)D, as substrate.
Second passage of prostate cells derived from BPH cultures were incubated with nonradioactive 25(OH)D3 (50 nM), [^3H]-25(OH)D3 (0.91 μCi/nmol) and DPPD (10 μM) at 37° C. for two hours in the absence of clotrimazole (20 μM).
Data set [11] has as its target T1, 1α-OHase. The following applies: normal human prostate cells; clotrimazole 20 μM; 25(OH)D3 50 nM, [3H]-25(OH)D3, DPPD 10 μM, 2 h 37° C. (FIG. 3).
Method: as §5
Second passage of normal human prostate cells incubated with nonradioactive 25(OH)D3 (50 nM), [^3H]-25(OH)D3 (0.91 μCi/nmol) and 1,2-dianilinoethane (DPPD) (10 μM) at 37° C. for two hours in the absence of clotrimazole (20 μM) is shown in FIG. 2.
Second passage of normal human prostate cells were also incubated with nonradioactive 25(OH)D3 (50 nM), [^3H]-25(OH)D3 (0.91 μCi/nmol) and DPPD (10 μM) at 37° C. for two hours in the presence of clotrimazole (20 μM) in the presence of the cytochrome P450 inhibitor (clotrimazole).
Data set [12] deals with T1, 1α-OHase. Particulars: LNCaP; clotrimazole 20 μM; 25(OH)D3 50 nM, 2 h 37° C.
Method: as §3, §4
Data set [13] has as its target T1, 1α-OHase. It is filed as cell-based. Set-up: two primary cultures of cells, NP96-5 and BPH96-11, derived from noncancerous human prostates; endogenous in cells; host or cells: primary human prostatic epithelial cultures NP96-5 (normal prostate) and BPH96-11 (BPH). Particulars: Human keratinocytes; clotrimazole 20 μM; 25(OH)D3 50 nM, 2 h 37° C.
[14] abbreviates: clotrimazole 20 μM, 25(OH)D3 50 nM, 2 h 37° C.

“Also recorded” adds a separate entry of the source. Read-outs that look alike come from different tables or passages of the source.

In the case of `C=C1/C(=C\C=C2/CCC[C@]3(C)[C@@H]([C@H](C)CCCC(C)(C)O)CC[C@@H]23)C[C@@H](O)C[C@@H]1O` [1,25(OH)2D, 1,25-dihydroxyvitamin D], the entries for the “1,25(OH)2D produced” value (in data set [1]; in data set [2]; with human bone cells) were 2.3 pmol/mg protein/hr, 1.6 pmol/mg protein/hr and 0.068 pmol/mg protein/hr, respectively. Moreover, the “Level of 1,25(OH)2D that can significantly inhibit invasiveness” value in [3] (artificial basement membrane composed of human amnions) was ≥ 10^−11 M. Further, the “effect on invasiveness of DU 145 cells” value in data set [3] (physiological levels of 1,25(OH)2D, DU 145, correlated with decrease in secreted type IV collagenase (MMP-2 and MMP-9)) is recorded as “significantly inhibit the invasiveness”. Also, the 1α-OHase enzyme activity in data set [4] is on record as 5.3-5.6 pmol/hr/mg protein.
As to `C=C1CC[C@H](O)C/C1=C/C=C1\CCC[C@]2(C)[C@@H]([C@H](C)CCCC(C)(C)O)CC[C@@H]12` [25(OH)D, 25-hydroxyvitamin D], the “proliferative activity of transfected vs non-transfected control keratinocytes” value in data set [5] (25(OH)D 10^−9 to 10^−7M, 18 hours (FIG. 6)) is recorded as “more marked decrease in proliferative activity”. Besides, in data set [5] (25(OH)D at 10^−7 M, 18 hours, cells transfected with 1α-OHase gene compared to untransfected keratinocytes, p<0.01), the “reduction in the proliferative activity ([3H]thymidine incorporation)” value turned out to be 53.7%.
In the case of `Clc1ccccc1C(c1ccccc1)(c1ccccc1)n1ccnc1` [clotrimazole], the “1,25(OH)2D Produced, P-450 Inhibitor Present” value is listed as “completely inhibited; also recorded: undetectable” at 1α-OHase [6]; “completely inhibited; also recorded: undetectable” at 1α-OHase [7] (setting [14]); “completely inhibited; also recorded: undetectable” at 1α-OHase [8] (setting [14]); “completely inhibited; also recorded: undetectable” on 1α-OHase [9]; “undetectable” on 1α-OHase [12]; “completely inhibited; also recorded: undetectable” on 1α-OHase [13]. Moreover, the “inhibition of 1,25(OH)2D production” value at 1α-OHase [7] (clotrimazole) and against 1α-OHase [8] (clotrimazole) was 100% in each case. At 1α-OHase [10], the “1,25(OH)2D metabolite level in the presence of clotrimazole (tritium activity, HPLC)” value is “less than 200 cpm”. Moreover, the “1,25(OH)2D synthesis in the presence of clotrimazole (HPLC)” value at 1α-OHase [11] is reported as “undetectable”.
